Measured values: patent US12522595B2, “Bicyclic ether O-glycoprotein-2-acetamido-2-deoxy-3-D-glucopyranosidase inhibitors” (BIOGEN MA INC., priority 2019, dated 2026)

What follows are molecules tested against T1, Recombinant full length human OGA enzyme (Homo sapiens, UniProt O60502) (assay: OGA enzyme inhibition biochemical assay). Conditions: 1 nM OGA, 100 μM 4-MUGlcNAc (Km), pH 6.4, 90 minutes at room temperature, 10-point dose-response from 20 μM.
T1 construct: Recombinant full length human OGA enzyme was purchased from Origene; purchased Origene
T1 sequence (O60502 1-916): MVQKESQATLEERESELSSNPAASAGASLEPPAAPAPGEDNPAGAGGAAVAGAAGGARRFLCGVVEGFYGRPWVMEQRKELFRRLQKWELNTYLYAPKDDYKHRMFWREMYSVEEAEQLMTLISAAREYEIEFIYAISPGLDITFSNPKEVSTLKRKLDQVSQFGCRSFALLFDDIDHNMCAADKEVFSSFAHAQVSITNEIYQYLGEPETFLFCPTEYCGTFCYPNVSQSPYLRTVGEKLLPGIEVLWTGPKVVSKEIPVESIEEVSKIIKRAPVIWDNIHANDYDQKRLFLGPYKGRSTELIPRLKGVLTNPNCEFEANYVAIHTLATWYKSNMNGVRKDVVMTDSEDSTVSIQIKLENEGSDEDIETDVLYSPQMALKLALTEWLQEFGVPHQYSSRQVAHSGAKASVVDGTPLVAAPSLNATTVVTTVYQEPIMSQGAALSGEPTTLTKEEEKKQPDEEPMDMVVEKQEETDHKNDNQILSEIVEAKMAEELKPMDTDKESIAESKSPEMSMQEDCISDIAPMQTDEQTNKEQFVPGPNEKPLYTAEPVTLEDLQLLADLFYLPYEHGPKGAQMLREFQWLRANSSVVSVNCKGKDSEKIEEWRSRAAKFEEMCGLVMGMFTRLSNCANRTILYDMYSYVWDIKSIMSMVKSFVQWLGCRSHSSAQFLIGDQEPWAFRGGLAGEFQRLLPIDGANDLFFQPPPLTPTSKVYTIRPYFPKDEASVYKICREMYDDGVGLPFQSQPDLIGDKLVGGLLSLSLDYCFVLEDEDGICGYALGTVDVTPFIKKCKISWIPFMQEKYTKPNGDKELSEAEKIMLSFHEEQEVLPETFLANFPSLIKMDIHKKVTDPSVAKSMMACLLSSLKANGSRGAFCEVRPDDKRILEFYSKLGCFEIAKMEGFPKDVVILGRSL
In short: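 1 nM OGA with 100 μM 4-MUGlcNAc (Km) in McIlvaine buffer pH 6.4, 0.01% BSA, 90 min at room temperature; quenched with 3M glycine pH 10, fluorescence Ex 355/Em 460 nm. 10-point, 4-fold dilutions from 20 μM; 4-parameter variable-slope fit.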

| IC50 [nM] | SMILES |
| --- | --- |
| < 1 | CC(=O)Nc1nc(F)c(CN2C[C@H](Oc3ncc4cnn(C)c4n3)C[C@@H]2C)s1 [Example 142, N-(4-fluoro-5-(((2S,4R)-2-methyl-4-((1-methyl-1H-pyrazolo[3,4-d]pyrimidin-6-yl)oxy)pyrrolidin-1-yl)methyl)thiazol-2-yl)acetamide] |
| 2.6 | CC(=O)Nc1nc(F)c(CN2C[C@H](Oc3ncnc4cccnc34)C[C@@H]2C)s1 [Example 116, N-(4-fluoro-5-(((2S,4R)-2-methyl-4-(pyrido[3,2-d]pyrimidin-4-yloxy)pyrrolidin-1-yl)methyl)thiazol-2-yl)acetamide] |
| < 1 | CC(=O)Nc1ncc(CN2C[C@H](Oc3nccc4nccn34)C[C@@H]2C)s1 [Example 97, N-(5-(((2S,4R)-4-(imidazo[1,2-c]pyrimidin-5-yloxy)-2-methylpyrrolidin-1-yl)methyl)thiazol-2-yl)acetamide] |
| < 1 | COc1ccc2ccc(O[C@@H]3C[C@H](C)N(Cc4sc(NC(C)=O)nc4F)C3)nc2n1 [Example 167, N-(4-fluoro-5-(((2S,4R)-4-((7-methoxy-1,8-naphthyridin-2-yl)oxy)-2-methylpyrrolidin-1-yl)methyl)thiazol-2-yl)acetamide] |
| < 1 | CC(=O)Nc1nc(F)c(CN2C[C@H](Oc3ncc4ccn(C)c4n3)C[C@@H]2C)s1 [Example 110, N-(4-fluoro-5-(((2S,4R)-2-methyl-4-((7-methyl-7H-pyrrolo[2,3-d]pyrimidin-2-yl)oxy)pyrrolidin-1-yl)methyl)thiazol-2-yl)acetamide] |
| < 1 | CC(=O)Nc1ncc(CN2C[C@H](Oc3cnc4cc(F)c(F)cc4n3)C[C@@H]2C)s1 [Example 9, N-(5-(((2S,4R)-4-((6,7-difluoroquinoxalin-2-yl)oxy)-2-methylpyrrolidin-1-yl)methyl)thiazol-2-yl)acetamide] |
| < 1 | CC(=O)Nc1nc(F)c(CN2C[C@H](Oc3cnc4nncn4c3)C[C@@H]2C)s1 [Example 165, N-(5-(((2S,4R)-4-([1,2,4]triazolo[4,3-a]pyrimidin-6-yloxy)-2-methylpyrrolidin-1-yl)methyl)-4-fluorothiazol-2-yl)acetamide] |
| < 1 | CC(=O)Nc1nc(F)c(CN2C[C@H](Oc3cn4nccc4cn3)C[C@@H]2C)s1 [Example 171, N-(4-fluoro-5-(((2S,4R)-2-methyl-4-(pyrazolo[1,5-a]pyrazin-6-yloxy)pyrrolidin-1-yl)methyl)thiazol-2-yl)acetamide] |
| < 1 | CC(=O)Nc1ncc(CN2C[C@H](Oc3ccc4nn(C)cc4c3)C[C@@H]2C)s1 [Example 44, N-(5-(((2S,4R)-2-methyl-4-((2-methyl-2H-indazol-5-yl)oxy)pyrrolidin-1-yl)methyl)thiazol-2-yl)acetamide] |
| < 1 | CC(=O)Nc1nc(F)c(CN2C[C@H](Oc3ccc4ncnn4c3)C[C@@H]2C)s1 [Example 172, N-(5-(((2S,4R)-4-([1,2,4]triazolo[1,5-a]pyridin-6-yloxy)-2-methylpyrrolidin-1-yl)methyl)-4-fluorothiazol-2-yl)acetamide] |
| < 1 | CC(=O)Nc1nc(F)c(CN2C[C@H](Oc3ccc4nccn4n3)C[C@@H]2C)s1 [Example 108, N-(4-fluoro-5-(((2S,4R)-4-(imidazo[1,2-b]pyridazin-6-yloxy)-2-methylpyrrolidin-1-yl)methyl)thiazol-2-yl)acetamide] |
| < 1 | CC(=O)Nc1nc(F)c(CN2C[C@H](Oc3ccc4nn(C(F)F)cc4n3)C[C@@H]2C)s1 [Example 154, N-(5-(((2S,4R)-4-((2-(difluoromethyl)-2H-pyrazolo[4,3-b]pyridin-5-yl)oxy)-2-methylpyrrolidin-1-yl)methyl)-4-fluorothiazol-2-yl)acetamide] |
| < 1 | CC(=O)Nc1nc(F)c(CN2C[C@H](Oc3nc4c(F)cccc4o3)C[C@@H]2C)s1 [Example 127, N-(4-fluoro-5-(((2S,4R)-4-((4-fluorobenzo[d]oxazol-2-yl)oxy)-2-methylpyrrolidin-1-yl)methyl)thiazol-2-yl)acetamide] |
| 3.1 | CC(=O)Nc1nc(F)c(CN2C[C@H](Oc3noc4cc(F)ccc34)C[C@@H]2C)s1 [Example 126, N-(4-fluoro-5-(((2S,4R)-4-((6-fluorobenzo[d]isoxazol-3-yl)oxy)-2-methylpyrrolidin-1-yl)methyl)thiazol-2-yl)acetamide] |
| < 1 | CC(=O)Nc1nc(F)c(CN2C[C@H](Oc3cnc4ccnn4c3)C[C@@H]2C)s1 [Example 170, N-(4-fluoro-5-(((2S,4R)-2-methyl-4-(pyrazolo[1,5-a]pyrimidin-6-yloxy)pyrrolidin-1-yl)methyl)thiazol-2-yl)acetamide] |
| < 1 | CC(=O)Nc1nc(F)c(CN2C[C@H](Oc3cccc4ncnn34)C[C@@H]2C)s1 [Example 102, N-(5-(((2S,4R)-4-([1,2,4]triazolo[1,5-a]pyridin-5-yloxy)-2-methylpyrrolidin-1-yl)methyl)-4-fluorothiazol-2-yl)acetamide] |
| 2.4 | CC(=O)Nc1ncc(CN2C[C@H](Oc3ccnc4ccc(C)cc34)C[C@@H]2C)s1 [Example 23, N-(5-(((2S,4R)-2-methyl-4-((6-methylquinolin-4-yl)oxy)pyrrolidin-1-yl)methyl)thiazol-2-yl)acetamide] |
| < 1 | CC(=O)Nc1nc(F)c(CN2C[C@H](Oc3ccc4ncnn4c3C)C[C@@H]2C)s1 [Example 105, N-(4-fluoro-5-(((2S,4R)-2-methyl-4-((5-methyl-[1,2,4]triazolo[1,5-a]pyridin-6-yl)oxy)pyrrolidin-1-yl)methyl)thiazol-2-yl)acetamide] |
| < 1 | CC(=O)Nc1nc(F)c(CN2C[C@H](Oc3ccc4c(cnn4C(F)F)n3)C[C@@H]2C)s1 [Example 153, N-(5-(((2S,4R)-4-((1-(difluoromethyl)-1H-pyrazolo[4,3-b]pyridin-5-yl)oxy)-2-methylpyrrolidin-1-yl)methyl)-4-fluorothiazol-2-yl)acetamide] |
| < 1 | CC(=O)Nc1ncc(CN2C[C@H](Oc3cn4nc(C)cc4cn3)C[C@@H]2C)s1 [Example 53, N-(5-(((2S,4R)-2-methyl-4-((2-methylpyrazolo[1,5-a]pyrazin-6-yl)oxy)pyrrolidin-1-yl)methyl)thiazol-2-yl)acetamide] |
| < 1 | CC(=O)Nc1nc(F)c(CN2C[C@H](Oc3nccc4ncnn34)C[C@@H]2C)s1 [Example 145, N-(5-(((2S,4R)-4-([1,2,4]triazolo[1,5-c]pyrimidin-5-yloxy)-2-methylpyrrolidin-1-yl)methyl)-4-fluorothiazol-2-yl)acetamide] |
| 4.1 | CC(=O)Nc1nc(F)c(CN2C[C@H](Oc3ncnc4ccc(F)cc34)C[C@@H]2C)s1 [Example 123, N-(4-fluoro-5-(((2S,4R)-4-((6-fluoroquinazolin-4-yl)oxy)-2-methylpyrrolidin-1-yl)methyl)thiazol-2-yl)acetamide] |
| 5.5 | CC(=O)Nc1ncc(CN2C[C@H](Oc3nc4ccccc4cc3C)C[C@@H]2C)s1 [Example 29, N-(5-(((2S,4R)-2-methyl-4-((3-methylquinolin-2-yl)oxy)pyrrolidin-1-yl)methyl)thiazol-2-yl)acetamide] |
| < 1 | CC(=O)Nc1ncc(CN2C[C@H](Oc3ccnc4cc(F)ccc34)C[C@@H]2C)s1 [Example 17, N-(5-(((2S,4R)-4-((7-fluoroquinolin-4-yl)oxy)-2-methylpyrrolidin-1-yl)methyl)thiazol-2-yl)acetamide] |
| < 1 | CC(=O)Nc1ncc(CN2C[C@H](Oc3ncnc4occc34)C[C@@H]2C)s1 [Example 73, N-(5-(((2S,4R)-4-(furo[2,3-d]pyrimidin-4-yloxy)-2-methylpyrrolidin-1-yl)methyl)thiazol-2-yl)acetamide] |
| 2.7 | CC(=O)Nc1ncc(CN2C[C@H](Oc3nccc4occc34)C[C@@H]2C)s1 [Example 69, N-(5-(((2S,4R)-4-(furo[3,2-c]pyridin-4-yloxy)-2-methylpyrrolidin-1-yl)methyl)thiazol-2-yl)acetamide] |
| 1.1 | CC(=O)Nc1nc(F)c(CN2C[C@H](Oc3ncnc4ncccc34)C[C@@H]2C)s1 [Example 119, N-(4-fluoro-5-(((2S,4R)-2-methyl-4-(pyrido[2,3-d]pyrimidin-4-yloxy)pyrrolidin-1-yl)methyl)thiazol-2-yl)acetamide] |
| < 1 | CC(=O)Nc1ncc(CN2C[C@H](Oc3c(Cl)ccn4ccnc34)C[C@@H]2C)s1 [Example 38, N-(5-(((2S,4R)-4-((7-chloroimidazo[1,2-a]pyridin-8-yl)oxy)-2-methylpyrrolidin-1-yl)methyl)thiazol-2-yl)acetamide] |
